Results reported in US4581366A, “Aldose reductase inhibition by spiro indoline derivatives” (Imperial Chemical Industries PLC, priority 1983, dated 1986).

Columns and labels:
aldose reductase [1] = molecular target: T1, aldose reductase (Bos taurus, UniProt P16116); experiment: in vitro inhibition of partially purified aldose reductase from bovine lenses (reduction of glucose to sorbitol, spectrophotometric); type: biochemical; conditions: read-out: IC50 (concentration necessary to inhibit to the extent of 50% the enzyme's ability to reduce glucose to sorbitol)
T1 construct: partially purified aldose reductase is isolated in known manner from bovine lenses; from tissue; host or cells: bovine lens
Procedure: Thus, partially purified aldose reductase is isolated in known manner from bovine lenses. The percentage inhibition of this enzyme's ability in vitro to reduce aldoses to polyhydric alcohols, and particularly to reduce glucose to sorbitol, caused by a test compound is then determined using standard spectrophotometric methods.
(§1) In the above in vivo test, an effective dose (ED) may be defined as the oral dose at which the residual sorbitol level in the sciatic nerve is reduced to a level similar to that in the sciatic nerve of normal, undosed rats. In this test the novel compound of formula I has an ED of approximately 1.76 mg/kg. as the racemic form and of approximately 0.62 mg/kg. as the dextrorotatory, optically active form.

aldose reductase [2] = experiment: in vivo aldose reductase inhibition in streptozotocin-diabetic rats (residual sorbitol in sciatic nerve); set-up: species or system rat; conditions: dosed daily for 2-5 days, 2-4 hours after final dose
Procedure: Thus, rats are made diabetic (as evidenced by severe glucosuria being present) by dosing with streptozotocin. The animals are then dosed daily with the test compound for 2-5 days. The animals are then killed 2-4 hours after the final dose and the eye lenses and/or sciatic nerves are removed. After a standard work-up procedure the residual sorbitol levels in each tissue are determined by gas liquid chromatography after conversion to the polytrimethysilyl derivatives. Inhibition of aldose reductase in vivo is then assessed by comparing the residual sorbitol levels in tissues from the dosed diabetic group of rats with those of an undosed group of diabetic rats and an undosed, normal group of rats.
as §1

IC50 (aldose reductase [1])	Compound	effective dose (ED): oral dose at which the residual sorbitol level in the sciatic nerve is reduced to a level similar to that of normal, undosed rats (aldose reductase [2])
~24 nM	O=C1NC(=O)C2(N1)C(=O)N(Cc1ccc(Br)cc1F)c1c(Cl)cccc12 (racemic) [compound of formula I, racemic form, (±)-1'-(4-bromo-2-fluorobenzyl)-7'-chloro-spiro[imidazolidine-4,3'-indoline]-2,2',5-trione]	approximately 1.76 mg/kg
~9.8 nM	O=C1NC(=O)C2(N1)C(=O)N(Cc1ccc(Br)cc1F)c1c(Cl)cccc12 (single isomer, unassigned; (+)) [(+)-1'-(4-bromo-2-fluorobenzyl)-7'-chloro-spiro[imidazolidine-4,3'-indoline]-2,2',5-trione]	approximately 0.62 mg/kg
